Source: patent US20140248347A1 (PFIZER INC., priority 2011, published 2014)

Experiment: Susceptibility of axitinib API to degradation found during drug development
Assay type: physicochemical
Conditions: active pharmaceutical ingredient

CNC(=O)c1ccccc1Sc1ccc2c(/C=C/c3ccccn3)n[nH]c2c1 [axitinib, N-methyl-2-[3-((E)-2-pyridin-2-yl-vinyl)-1H-indazol-6-ylsulfanyl]-benzamide]
susceptibility to degradation, including photodegradation: highly susceptible to degradation, including photodegradation
